These results are taken from the NIST ThermoML archive (doi:10.1016/j.jct.2016.09.028).

The structures appear in SMILES notation. ± gives the expanded uncertainty stated by the source.

A short description of series [1]: xn = mol fraction of the nth substance listed. The settings on record: 100 kPa, Liquid, x1 = 1; for speed of sound: Frequency=3 MHz, Sing-around technique in a fixed-path interferometer; for mass density: Vibrating tube method.
For series [2] the following is noted: 100 kPa, Liquid; for speed of sound: Frequency=3 MHz, Sing-around technique in a fixed-path interferometer; for mass density: Vibrating tube method.

With `CCn1cc[n+](C)c1.F[B-](F)(F)F` [1-ethyl-3-methylimidazolium tetrafluoroborate] + Nc1ccccc1, the speed of sound in series [1] (293.15 K) worked out at 1632.6 ± 2.4 m/s; in series [1] (303.15 K), 1609.5 ± 2.4 m/s; in series [1] (313.15 K), 1586.2 ± 2.4 m/s; in series [1] (323.15 K) it was 1563.4 ± 2.3 m/s. In addition, the mass density in series [1] (293.15 K) came to 1283.64 ± 1.7 kg/m3; in series [1] (303.15 K), 1276.12 ± 1.7 kg/m3; in series [1] (313.15 K), 1268.57 ± 1.6 kg/m3; in series [1] (323.15 K), 1261.04 ± 1.6 kg/m3.

`CCn1cc[n+](C)c1.F[B-](F)(F)F` [1-ethyl-3-methylimidazolium tetrafluoroborate]: the speed of sound came to 1632.6 ± 2.4 m/s in series [2] (293.15 K), 1609.5 ± 2.4 m/s in series [2] (303.15 K), 1586.2 ± 2.4 m/s in series [2] (313.15 K) and 1563.4 ± 2.3 m/s in series [2] (323.15 K). Also, the mass density in series [2] (293.15 K) was 1283.64 ± 1.7 kg/m3; in series [2] (303.15 K) it was 1276.12 ± 1.7 kg/m3; in series [2] (313.15 K), 1268.57 ± 1.6 kg/m3; in series [2] (323.15 K) it was 1261.04 ± 1.6 kg/m3.

As a reminder, the speed of sound is the propagation velocity of pressure waves in the medium. As usually defined, the mass density is the mass of a sample divided by its volume.
